The source of these data is patent publication US20260325533A1, “CDK INHIBITOR COMPOUNDS” (ALEKSIA THERAPEUTICS, INC., priority 2023, published 2026).

The target in the first assay is CDK1/CCNB1 (Homo sapiens, UniProt P06493). Nature of the assay: CDK1 homogeneous time-resolved fluorescence (HTRF) kinase assay. Format: biochemical. As to conditions: CDK1/CCNB; 25-250 nM marked x; read-out: CDK1/CCNB IC50 25-250 nM. As for the experimental part: (§1) A CDK homogeneous time-resolved fluorescence (HTRF) assay was used to assess the potency of the compounds described herein.
Sequence of CDK1/CCNB1 (P06493 whole entry): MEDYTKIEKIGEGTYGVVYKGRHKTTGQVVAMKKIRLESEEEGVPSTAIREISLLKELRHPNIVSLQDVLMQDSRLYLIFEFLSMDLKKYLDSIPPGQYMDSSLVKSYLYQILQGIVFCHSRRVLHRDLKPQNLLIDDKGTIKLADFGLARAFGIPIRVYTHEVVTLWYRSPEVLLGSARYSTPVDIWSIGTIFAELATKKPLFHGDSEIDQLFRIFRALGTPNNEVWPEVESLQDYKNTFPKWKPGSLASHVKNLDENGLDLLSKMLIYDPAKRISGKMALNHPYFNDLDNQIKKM
Sequence of CDK1/CCNB1 (P14635 whole entry partner): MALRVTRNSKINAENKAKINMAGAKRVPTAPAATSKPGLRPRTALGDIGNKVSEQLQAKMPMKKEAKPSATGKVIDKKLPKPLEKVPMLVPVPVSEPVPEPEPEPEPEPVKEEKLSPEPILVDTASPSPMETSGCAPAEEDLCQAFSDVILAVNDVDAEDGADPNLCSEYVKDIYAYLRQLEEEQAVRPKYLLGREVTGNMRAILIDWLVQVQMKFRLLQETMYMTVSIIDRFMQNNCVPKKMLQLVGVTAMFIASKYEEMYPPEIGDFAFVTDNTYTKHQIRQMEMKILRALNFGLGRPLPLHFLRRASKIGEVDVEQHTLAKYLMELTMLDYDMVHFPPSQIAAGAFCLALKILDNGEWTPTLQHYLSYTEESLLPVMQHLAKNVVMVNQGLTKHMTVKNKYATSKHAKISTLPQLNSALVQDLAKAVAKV
(§2) To an untreated 384-well microtiter plate (ProxiPlate) was added 100 nL 100×test compound in DMSO and 5 μL 2×CDK enzyme in assay buffer (50 mM HEPES, 1 mM EGTA, 10 mM MgCl2, 0.01% Tween 20, 2 mM DTT). The plate was centrifuged at 800 RPM for 1 min then incubated for 20 min at 23 °C. 2.5 μL per well of 4×ATP and 2.5 μL 4×ULight™-eIF4E-binding protein 1 (Thr37/46) Peptide substrate were added to all wells. After addition, the plates were centrifuged at 800 RPM for 1 min. The plates were incubated at 23 °C for 60 min. 5 μL per well 4×EDTA solution were added to each well to stop the reaction. 5 μL 4×LANCE Ultra Europium-anti-phospho-eIF4E-binding protein 1 (Thr37/46) antibody were added to each well and the plate was centrifuged for 1 min at 800 RPM. The plate was incubated for 60 min at 23 °C. Fluorescence was read at 340 nm excitation and 665 nm emission on an En Vision 2105 fluorescence reader. The final concentrations of reagents in the activity assay were 0.5 nM CDK1/CCNB1, 1 mM ATP, 50 nM ULight™-eIF4E-binding protein 1 (Thr37/46) Peptide substrate, 1% DMSO, 10 mM EDTA, and 2 nM LANCE Ultra Europium-anti-phospho-eIF4E-binding protein 1 (Thr37/46).
(§3) Dose-response titrations were conducted by using an 11-point, half-logarithmic serial dilution scheme typically starting at 10 μM. Signals were reported as fluorescence units at 665 nm or the ratio of fluorescence units at 665 nm/fluorescence units at 615 nm. Signals are referred to below as “Lance signals”.
(§4) Using this assay, the IC50 values of example compounds were determined. Table 3 illustrates the IC50 for various Example compounds of Formula IA. Table 4 illustrates the IC50 for various other Example compounds of Formula I. ND=not determined.
For `N=S(=O)(c1ccc(Nc2cc3c(C#Cc4ccc5c(c4)NC(=O)C54CC4)nccc3cn2)c(F)c1)C1COC1` (single isomer, unassigned) [Ex 276, 6'-((7-((2-fluoro-4-(oxetane-3-sulfonimidoyl)phenyl)amino)-2,6-naphthyridin-1-yl)ethynyl)spiro[cyclopropane-1,3'-indolin]-2'-one], the IC50 was in the range of 25 to 250 nM.

Staying with this assay, now noted: CDK1/CCNB; <25 nM; read-out: CDK1/CCNB IC50 <25 nM.
For the compound `N=S(=O)(c1ccc(Nc2cc3c(C#Cc4ccc5c(c4)NC(=O)C54CC4)nccc3cn2)cc1)C1CC1` (single isomer, unassigned) [Ex 307, 6'-((7-((4-(cyclopropanesulfonimidoyl)phenyl)amino)-2,6-naphthyridin-1-yl)ethynyl)spiro[cyclopropane-1,3'-indolin]-2'-one], the IC50 is less than 25 nM.

In another assay the target is CDK2/CCNE1 (Homo sapiens, UniProt P24941). In words: CDK2 homogeneous time-resolved fluorescence (HTRF) kinase assay. Format: biochemical. Conditions: <25 nM; CDK2/CCNE; read-out: CDK2/CCNE IC50, <25 nM. As for the experimental part: as §1
as §2, with “3” for “0.5”, “CDK2/CCNE1,” for “CDK1/CCNB1,”
as §3, §4
A general note: TR-FRET usually uses a lanthanide donor and a delayed reading to cut background.
Turning to `Cc1c(-c2nccc3cnc(Nc4ccc(S(=N)(=O)NC5CCC5)cc4)cc23)ccc2c1cnn2CC(O)(C(F)(F)F)C(F)(F)F` (single isomer, unassigned) [Ex 690, N-cyclobutyl-4-((5-(4-methyl-1-(3,3,3-trifluoro-2-hydroxy-2-(trifluoromethyl)propyl)-1H-indazol-5-yl)-2,6-naphthyridin-3-yl)amino)benzenesulfonimidamide], the IC50 was less than 25 nM.
On to `Cc1c(-c2nccc3cnc(Nc4ccc(S(=N)(=O)Nc5ccccc5)cc4)cc23)ccc2c1cnn2CC(O)(C(F)(F)F)C(F)(F)F` (single isomer, unassigned) [Ex 693, 4-((5-(4-methyl-1-(3,3,3-trifluoro-2-hydroxy-2-(trifluoromethyl)propyl)-1H-indazol-5-yl)-2,6-naphthyridin-3-yl)amino)-N-phenylbenzenesulfonimidamide], for which the IC50 was less than 25 nM.

Staying with this assay, now noted: >250 nM; CDK2/CCNE; read-out: CDK2/CCNE IC50, >250 nM.
For `CS(=O)(=O)c1ccc(Nc2cc3c(C#Cc4cccnc4O)nccc3cn2)cc1` [Ex 902, 3-((7-((4-(methylsulfonyl)phenyl)amino)-2,6-naphthyridin-1-yl)ethynyl)pyridin-2-ol], the IC50 is greater than 250 nM.

The assay is the same for the next values; noted with them: CDK2/CCNE; 25-250 nM marked x; read-out: CDK2/CCNE IC50 25-250 nM.
As for `CNC(=O)C1CCCN(c2nccc3cnc(NC4CCN(S(C)(=O)=O)CC4)cc23)C1` (single isomer, unassigned) [Ex 31, N-methyl-1-(7-((1-(methylsulfonyl)piperidin-4-yl)amino)-2,6-naphthyridin-1-yl)piperidine-3-carboxamide], the IC50 fell in the range of 25 to 250 nM.
Regarding `CCC1(CC)C(=O)Nc2cc(C#Cc3nccc4cnc(Nc5ccc(S(=N)(=O)C6CCC6)cc5OC)cc34)ccc21` (single isomer, unassigned) [Ex 272, 6-((7-((4-(cyclobutanesulfonimidoyl)-2-methoxyphenyl)amino)-2,6-naphthyridin-1-yl)ethynyl)-3,3-diethylindolin-2-one], the IC50 lay in the range of 25 to 250 nM.
The same measure, in the same setting: the same measure for `CCC1(CC)C(=O)Nc2cc(C#Cc3nccc4cnc(Nc5ccc(S(=N)(=O)C6CC(F)(F)C6)cc5F)cc34)ccc21` (single isomer, unassigned) [Ex 302, 6-((7-((4-(3,3-difluorocyclobutane-1-sulfonimidoyl)-2-fluorophenyl)amino)-2,6-naphthyridin-1-yl)ethynyl)-3,3-diethylindolin-2-one]: 25 to 250 nM.
The same measure, in the same setting: the same measure for `CCC1(CC)C(=O)Nc2cc(C#Cc3nccc4cnc(Nc5ccc(S(=N)(=O)C(C)C)cc5OC)cc34)ccc21` (single isomer, unassigned) [Ex 341, 3,3-diethyl-6-((7-((2-methoxy-4-(propan-2-ylsulfonimidoyl)phenyl)amino)-2,6-naphthyridin-1-yl)ethynyl)indolin-2-one]: 25 to 250 nM; for `CS(=O)(=O)N1CCC(Nc2cc3c(N4CCOCC4)nccc3cn2)CC1` [Ex 30, N-(1-(methylsulfonyl)piperidin-4-yl)-5-morpholino-2,6-naphthyridin-3-amine]: 25 to 250 nM.
Turning to `CC(=O)N1CCN(c2nccc3cnc(NC4CCN(S(C)(=O)=O)CC4)cc23)CC1` [Ex 58, 1-(4-(7-((1-(methylsulfonyl)piperidin-4-yl)amino)-2,6-naphthyridin-1-yl)piperazin-1-yl)ethan-1-one], the IC50 lay within 25 to 250 nM.
Same read-out and setting: the same measure for `CS(=O)(=O)N1CCC(Nc2cc3c(-c4ccc(C#N)nc4)nccc3cn2)CC1` [Ex 79, 5-(7-((1-(methylsulfonyl)piperidin-4-yl)amino)-2,6-naphthyridin-1-yl)picolinonitrile]: 25 to 250 nM.
The same measure, in the same setting: the same measure for `COC(=O)c1ccc(Nc2cc3c(C4=CCCCC4)nccc3cn2)cc1` [Ex 101, methyl 4-((5-(cyclohex-1-en-1-yl)-2,6-naphthyridin-3-yl)amino)benzoate]: 25 to 250 nM; for `O=C(Oc1ccc(F)cc1)c1ccc(Nc2cc3c(C4=CCCCC4)nccc3cn2)cc1` [Ex 254, 4-fluorophenyl 4-((5-(cyclohex-1-en-1-yl)-2,6-naphthyridin-3-yl)amino)benzoate]: 25 to 250 nM.

Still in this assay, the particulars now being: CDK2/CCNE; <25 nM; read-out: CDK2/CCNE IC50 <25 nM.
With `CCC1(CC)C(=O)Nc2cc(C#Cc3nccc4cnc(Nc5ccc(S(C)(=N)=O)cc5C(F)F)cc34)ccc21` (single isomer, unassigned) [Ex 295, 6-((7-((2-(difluoromethyl)-4-(S-methylsulfonimidoyl)phenyl)amino)-2,6-naphthyridin-1-yl)ethynyl)-3,3-diethylindolin-2-one], the IC50 is less than 25 nM.
The same measure, in the same setting: the same measure for `CCC1(CC)C(=O)Nc2cc(C#Cc3nccc4cnc(Nc5ccc(S(=N)(=O)C6CC6)cc5OC)cc34)ccc21` (single isomer, unassigned) [Ex 300, 6-((7-((4-(cyclopropanesulfonimidoyl)-2-methoxyphenyl)amino)-2,6-naphthyridin-1-yl)ethynyl)-3,3-diethylindolin-2-one]: less than 25 nM.
As to `CCC1(CC)C(=O)Nc2cc(C#Cc3nccc4cnc(Nc5ccc(S(=N)(=O)CC)cc5OC)cc34)ccc21` (single isomer, unassigned) [Ex 309, 3,3-diethyl-6-((7-((4-(ethylsulfonimidoyl)-2-methoxyphenyl)amino)-2,6-naphthyridin-1-yl)ethynyl)indolin-2-one], the IC50 is less than 25 nM.
Turning to `COc1cc(S(C)(=N)=O)ccc1Nc1cc2c(C#Cc3ccc4c(c3)NC(=O)C43CCC3)nccc2cn1` (single isomer, unassigned) [Ex 314, 6'-((7-((2-methoxy-4-(S-methylsulfonimidoyl)phenyl)amino)-2,6-naphthyridin-1-yl)ethynyl)spiro[cyclobutane-1,3'-indolin]-2'-one], the IC50 was less than 25 nM.
Same read-out and setting: the same measure for `CCC1(CC)C(=O)Nc2cc(C#Cc3nccc4cnc(Nc5ccc(S(=N)(=O)C6COC6)cc5OC)cc34)ccc21` (single isomer, unassigned) [Ex 318, 3,3-diethyl-6-((7-((2-methoxy-4-(oxetane-3-sulfonimidoyl)phenyl)amino)-2,6-naphthyridin-1-yl)ethynyl)indolin-2-one]: less than 25 nM; for `CCC1(CC)C(=O)Nc2cc(C#Cc3nccc4cnc(Nc5ccc(S(C)(=N)=O)cc5OC)cc34)ccc21` (single isomer, unassigned) [Ex 320, 3,3-diethyl-6-((7-((2-methoxy-4-(S-methylsulfonimidoyl)phenyl)amino)-2,6-naphthyridin-1-yl)ethynyl)indolin-2-one]: less than 25 nM.

The assay is the same for the next values; noted with them: CDK2/CCNE; x = IC50 <25 nM; read-out: CDK2/CCNE IC50 (<25 nM).
As to `CCS(=N)(=O)c1ccc(Nc2cc3c(C#Cc4ccc5c(c4)NC(=O)C54CC4)nccc3cn2)cc1` (racemic) [Ex 377, 6'-((7-((4-(ethylsulfonimidoyl)phenyl)amino)-2,6-naphthyridin-1-yl)ethynyl)spiro[cyclopropane-1,3'-indolin]-2'-one], the IC50 is less than 25 nM.
